Assay results: ChEMBL document CHEMBL1201862, “PubChem BioAssay data set” (2004)
Activity calls are given as the source filed them.

Legend:
[1] = target: T1, Polyadenylate-binding protein 1 (Homo sapiens, UniProt P11940); test: MLLE binding blockers, Cy5 peptide tracer – biochemical, fluorescence polarization, Cy5-PAM2 peptide, secondary, miRNA deadenylation inhibitor project, dose response (AID 602260); type: functional; details: read-out: IC50_Mean
[2] = target: T1, Polyadenylate-binding protein 1; test: MLLE domain peptide-binding blockers, IC50 – biochemical, fluorescence polarization, FITC-PAM2 peptide, dose response (AID 602259); type: functional; details: read-out: IC50_Mean
[3] = target: T2, Corticotropin-releasing factor receptor 2/Corticotropin-releasing factor-binding protein (Homo sapiens, UniProt P24387+Q13324); test: activators of CRF receptor 2 with binding protein – uHTS hits, confirmation (AID 602473); type: functional; details: read-out: EC50_Mean
T2 sequence (Q13324 whole entry): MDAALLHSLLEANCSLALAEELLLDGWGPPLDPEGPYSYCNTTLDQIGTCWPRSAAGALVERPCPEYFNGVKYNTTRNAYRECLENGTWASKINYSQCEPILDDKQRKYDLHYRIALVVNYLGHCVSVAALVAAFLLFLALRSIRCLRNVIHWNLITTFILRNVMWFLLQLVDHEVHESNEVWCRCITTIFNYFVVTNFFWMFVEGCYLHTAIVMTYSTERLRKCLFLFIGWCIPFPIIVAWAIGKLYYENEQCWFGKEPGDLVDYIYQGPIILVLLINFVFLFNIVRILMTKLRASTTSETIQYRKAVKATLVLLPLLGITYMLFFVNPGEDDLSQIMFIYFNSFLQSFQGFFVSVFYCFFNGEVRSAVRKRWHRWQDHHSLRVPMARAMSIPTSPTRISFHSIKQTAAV
T2 sequence (P24387 whole entry): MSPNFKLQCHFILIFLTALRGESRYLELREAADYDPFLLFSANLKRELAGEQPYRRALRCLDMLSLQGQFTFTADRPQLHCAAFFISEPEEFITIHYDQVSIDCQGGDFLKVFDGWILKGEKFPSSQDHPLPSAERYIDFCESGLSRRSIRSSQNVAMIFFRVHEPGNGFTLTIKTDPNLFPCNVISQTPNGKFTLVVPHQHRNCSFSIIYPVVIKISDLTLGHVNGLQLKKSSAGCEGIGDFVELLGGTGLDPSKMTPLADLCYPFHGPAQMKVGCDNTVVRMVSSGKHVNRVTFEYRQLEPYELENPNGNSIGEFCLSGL

[4] = target: T2, Corticotropin-releasing factor receptor 2/Corticotropin-releasing factor-binding protein; test: Dose Response confirmation of uHTS hits for small molecule antagonists of the CRF-binding protein and CRF-R2 receptor complex.; type: functional; details: read-out: IC50_Mean
Streptokinase A = target: T3, Streptokinase A (Streptococcus pyogenes serotype M1, UniProt P10520); test: viability-normalized secreted streptokinase activity reduction – plasminogen activation absorbance, OD405, dose response (AID 1914); type: functional, Streptococcus pyogenes M1 GAS;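 note: secreted streptokinase activity via plasminogen activation per viability signal from cell pellet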
T3 sequence (P10520 whole entry): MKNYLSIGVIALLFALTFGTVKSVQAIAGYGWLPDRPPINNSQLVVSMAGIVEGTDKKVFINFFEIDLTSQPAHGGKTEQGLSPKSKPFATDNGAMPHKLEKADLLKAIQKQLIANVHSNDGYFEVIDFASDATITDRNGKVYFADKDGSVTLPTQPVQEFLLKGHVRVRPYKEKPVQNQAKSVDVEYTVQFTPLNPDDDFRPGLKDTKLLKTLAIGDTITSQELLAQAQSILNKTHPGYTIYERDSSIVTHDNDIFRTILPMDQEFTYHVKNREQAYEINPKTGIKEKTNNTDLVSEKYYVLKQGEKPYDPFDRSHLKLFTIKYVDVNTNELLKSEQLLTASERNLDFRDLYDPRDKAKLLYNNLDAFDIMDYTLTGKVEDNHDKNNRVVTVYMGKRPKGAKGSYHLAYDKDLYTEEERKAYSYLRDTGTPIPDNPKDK

[5] = Trypanosoma cruzi growth suppression in host cells – NIH3T3 host cells, beta-gal luminescence, confirmation (AID 2044); type: functional, cell-based;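 note: intracellular parasites grown in NIH/3T3 mouse fibroblasts as host cells; luminescent beta-galactosidase reporter signal from transgenic T. cruzi replicating inside host cells; inhibitors lower the luminescence signal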
[6] = non-specific 3'UTR reporter inhibition in Clone20-Shn3RL – cell-based, Renilla luciferase, cherry-picked, counter-screen for Shn3 inhibitor project, dose response (AID 624133); type: functional
Streptococcus = test: GAS UMAA2166 growth inhibition – luminescence, BacTiterGlo, counter-screen for streptokinase expression inhibitor project, dose response (AID 1915); type: functional, organism-based;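 note: potency for reduction of bacterial viability or growth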
[7] = reduction of Shn3 3'UTR-driven luciferase in osteoblasts – cell-based, Clone20 osteoblasts, firefly luciferase, cherry-picked, dose response (AID 624132); type: functional;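 note: firefly luciferase luminescence from reporter carrying the Shn3 3'UTR in osteoblasts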
[8] = NIH3T3 cell viability loss – ATP luminescence, mouse fibroblasts, counter-screen, dose response (AID 2010); type: functional, cell-based;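 note: cells exposed to compound for about 90 hours before reading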
[9] = loss of viability in HepG2 cells – cell-based, CellTiter-Glo, cherry-picked, cytotoxicity control for Shn3 inhibitor project, dose response (AID 624134); type: functional
Paired box protein Pax-8 = Paired box protein Pax-8 (Homo sapiens, UniProt Q06710); test: PAX8 transcriptional activity inhibition in RMG-I – RMG-I cells, luciferase, cherry-pick, dose response (AID 687027); type: functional, cell-based;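 note: luciferase reporter driven by Pax8 target thyroperoxidase promoter measured by SteadyGlo luminescence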
[10] = test system: Streptococcus sp. 'group A'; test: Streptococcus pyogenes SK(-)GAS viability under kanamycin – luminescence, BacTiterGlo, confirmation, counter-screen for streptokinase expression inhibitor project, dose response (AID 1900); type: functional, organism-based
[11] = target: T4, Heat shock factor protein 1 (Mus musculus, UniProt P38532); test: decrease of HSF1-responsive luciferase luminescence – cell-based, NIH3T3, dose retest, confirmation (AID 2382); type: functional;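 note: NIH3T3 fibroblasts with HSF1-driven luciferase reporter stressed by proteasome inhibitor MG132; luminescence from HSF1-driven luciferase expression after 8 hours of MG132 stress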
T4 sequence (P38532 whole entry): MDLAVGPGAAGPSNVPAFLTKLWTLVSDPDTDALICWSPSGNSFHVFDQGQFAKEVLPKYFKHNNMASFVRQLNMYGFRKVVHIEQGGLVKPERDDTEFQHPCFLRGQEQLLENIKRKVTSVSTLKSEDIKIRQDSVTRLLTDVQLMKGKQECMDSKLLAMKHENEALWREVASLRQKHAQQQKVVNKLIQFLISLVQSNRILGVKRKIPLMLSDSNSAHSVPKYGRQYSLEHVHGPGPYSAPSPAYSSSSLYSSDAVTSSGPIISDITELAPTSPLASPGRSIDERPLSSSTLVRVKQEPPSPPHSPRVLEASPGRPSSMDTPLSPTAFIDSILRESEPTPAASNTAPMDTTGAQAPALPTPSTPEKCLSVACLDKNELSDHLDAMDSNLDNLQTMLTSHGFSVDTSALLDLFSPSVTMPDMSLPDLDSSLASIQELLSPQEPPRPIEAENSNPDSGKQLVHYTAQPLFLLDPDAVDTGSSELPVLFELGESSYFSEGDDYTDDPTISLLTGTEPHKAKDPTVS

H4 = test: Luminescence Cell-Based Dose Response HTS to Identify Activators of 5'UTR Stem-Loop Driven Prion Protein mRNA Translation in H4 Neuroglioblastoma Cells. [Related pubchem assays: 1829 (Project Summary), 1814 (Primary HTS)]; type: functional; details: Homo sapiens
[12] = Luminescence Cell-Based Dose Response HTS to Identify Activators of Luciferase Translation or Activity in H4 […] Cells. [Related pubchem assays: 1829 (Project Summary), 1814 (Primary HTS)]; type: functional
[13] = Luminescence Cell-Based Dose Confirmation HTS to Identify Activators of 5'UTR Stem-Loop Driven Alpha-Synuclein mRNA Translation in H4 Neuroglioblastoma Cells. [Related pubchem assays: 1829 (Project Summary), 1814 (Primary HTS)]; type: functional

T1 sequence (P11940 whole entry, the tested form may be a part): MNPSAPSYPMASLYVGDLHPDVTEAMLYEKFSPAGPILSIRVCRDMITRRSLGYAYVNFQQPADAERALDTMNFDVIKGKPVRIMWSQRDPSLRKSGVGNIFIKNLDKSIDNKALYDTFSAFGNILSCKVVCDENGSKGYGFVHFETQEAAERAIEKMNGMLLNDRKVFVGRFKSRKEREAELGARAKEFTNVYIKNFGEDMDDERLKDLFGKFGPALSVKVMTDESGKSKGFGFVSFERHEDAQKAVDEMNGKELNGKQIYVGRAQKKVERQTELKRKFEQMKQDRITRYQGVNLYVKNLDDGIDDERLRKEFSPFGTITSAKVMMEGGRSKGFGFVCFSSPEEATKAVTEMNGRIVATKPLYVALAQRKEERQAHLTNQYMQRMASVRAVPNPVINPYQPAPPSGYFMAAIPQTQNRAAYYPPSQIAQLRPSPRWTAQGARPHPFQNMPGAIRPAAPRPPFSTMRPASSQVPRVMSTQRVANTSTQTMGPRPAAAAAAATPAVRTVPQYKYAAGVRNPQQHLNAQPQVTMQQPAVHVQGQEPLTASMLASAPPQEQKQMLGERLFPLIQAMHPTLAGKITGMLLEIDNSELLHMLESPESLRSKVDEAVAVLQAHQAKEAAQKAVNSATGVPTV
Chain of Paired box protein Pax-8 (Q06710 whole entry): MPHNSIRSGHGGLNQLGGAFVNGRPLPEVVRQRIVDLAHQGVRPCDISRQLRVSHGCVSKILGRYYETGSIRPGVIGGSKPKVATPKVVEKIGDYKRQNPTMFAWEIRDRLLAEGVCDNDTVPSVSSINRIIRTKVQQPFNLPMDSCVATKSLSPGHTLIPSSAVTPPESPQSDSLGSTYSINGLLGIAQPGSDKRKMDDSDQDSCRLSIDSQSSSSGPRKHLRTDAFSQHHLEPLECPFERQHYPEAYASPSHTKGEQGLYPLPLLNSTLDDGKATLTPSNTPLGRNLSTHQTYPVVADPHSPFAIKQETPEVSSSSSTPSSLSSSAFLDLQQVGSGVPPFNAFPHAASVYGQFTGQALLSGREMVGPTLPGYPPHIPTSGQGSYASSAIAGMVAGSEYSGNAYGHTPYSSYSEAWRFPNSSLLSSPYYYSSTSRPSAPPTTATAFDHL

**Q.** What does the source list for `COC(=O)CCCC1=CC2=C(c3ccccc3)C(=O)C(C)(OC(=O)C3CCCC3)C(=O)C2=CN1CCN1CCOCC1` (configuration not stated)?
**A.** IC50 [1]: > 66 µM (inactive); IC50 [2]: > 66 µM (inactive)

**Q.** For `CCC1OC(=O)C(C)C(OC2C[C@@](C)(OC)C(O)C(C)O2)C(C)C(O[C@@H]2OC(C)CC(N(C)C)C2O)[C@](C)(O)CC(C)C(=NOCOCCOC)C(C)C(O)[C@]1(C)O` (some centres not stated), which EC50 [3] is on record?
**A.** > 53 µM (inactive)

**Q.** What about the IC50 [4] of the same molecule?
**A.** > 47.1 µM (inactive)

**Q.** For `Cc1ccc(C)c(N2CCN(C(=O)CCCCCn3c(=S)[nH]c4ccc(N5CCOCC5)cc4c3=O)CC2)c1`, which EC50 (Streptokinase A) is on record?
**A.** > 150 µM (not active)

**Q.** And the EC50 [5]?
**A.** 0.348 µM (active)

**Q.** What about the AC50 [6] of the same molecule?
**A.** 3.48 µM (active)

**Q.** What about the EC50 (Streptococcus) of the same molecule?
**A.** 140 µM (active)

**Q.** And the AC50 [7]?
**A.** 1.99 µM (active)

**Q.** What about the EC50 [8] of the same molecule?
**A.** 16.5 µM (active)

**Q.** And the AC50 [9]?
**A.** 5.02 µM (active)

**Q.** And the AC50 (Paired box protein Pax-8)?
**A.** 5.97 µM (active)

**Q.** And the EC50 [10]?
**A.** 6.52 µM (active)

**Q.** And the EC50 [11]?
**A.** 5.28 µM (active)

**Q.** Which results are given for `COC(=O)C1=C(C)N(Cc2ccccc2)C(=O)N[C@H]1CCc1ccccc1`?
**A.** EC50 [3]: > 53 µM (inactive); IC50 [4]: > 47.1 µM (inactive)

**Q.** What does the source list for `Cc1cc2cc(CNC(=O)c3ccc(S(=O)(=O)N4CCOCC4)cc3)ccc2[nH]1`?
**A.** IC50 [1]: > 66 µM (inactive); IC50 [2]: > 66 µM (inactive)

**Q.** Which EC50 (H4) does the source give for `Cc1ccc(-n2ncc(Cl)c2C(=O)NCc2ccccc2)cc1` here?
**A.** 5.76 µM (active)

**Q.** What about the EC50 [12] of the same molecule?
**A.** 4.06 µM (active)

**Q.** What about the EC50 [13] of the same molecule?
**A.** 3.28 µM (active)

**Q.** What does the source list for `O=C(NC(=S)Nc1ccc(S(=O)(=O)N2CCCCC2)cc1)c1cccs1`?
**A.** IC50 [1]: > 66 µM (inactive); IC50 [2]: > 66 µM (inactive)

**Q.** What does the source list for `Cc1cc(C)nc(Nc2nc(=O)c3ccccc3s2)n1`?
**A.** IC50 [1]: > 66 µM (inactive); IC50 [2]: > 66 µM (inactive)

**Q.** With `COC(=O)c1cn(C(=O)/C=C/c2ccc(OC)c(OC)c2)c2ccccc12` as the molecule, how does the EC50 (H4) read?
**A.** > 120 µM (not active)

**Q.** And the EC50 [12]?
**A.** 32.1 µM (active)

**Q.** And the EC50 [13]?
**A.** 20.2 µM (active)

**Q.** For `O=C(NC(=S)Nc1ccc(Cc2ccncc2)cc1)c1ccccc1Cl`, which IC50 [1] is on record?
**A.** > 66 µM (inactive)

**Q.** What about the IC50 [2] of the same molecule?
**A.** > 66 µM (inactive)

**Q.** Which IC50 [1] does the source give for `COc1ccc2oc(-c3ccncc3)cc(=O)c2c1` here?
**A.** > 66 µM (inactive)

**Q.** What about the IC50 [2] of the same molecule?
**A.** > 66 µM (inactive)

**Q.** What does the source list for `CC(C)C(NC(=O)c1ccc(Cl)cc1Cl)C(=O)N1CCN(S(=O)(=O)c2ccccc2)CC1` (configuration not stated)?
**A.** AC50 [6]: 21 µM (active); AC50 [7]: 48.5 µM (active)

**Q.** Which IC50 [1] does the source give for `CCCCOc1ccc(N2C(=O)C(C)CNC2=S)cc1` (configuration not stated) here?
**A.** > 66 µM (inactive)

**Q.** What about the IC50 [2] of the same molecule?
**A.** 41.1 µM (inactive)

**Q.** Which results are given for `Cc1oc(/N=C/c2ccc3c(c2)OCO3)c(C#N)c1C`?
**A.** EC50 (H4): > 120 µM (not active); EC50 [12]: 38.1 µM (active); EC50 [13]: > 120 µM (not active)

**Q.** Which results are given for `Cc1nc2ccccc2c(=O)n1/N=C/c1cn(-c2ccccc2)nc1-c1cccs1`?
**A.** EC50 (H4): 6.75 µM (active); EC50 [12]: 14.8 µM (active); EC50 [13]: 5.11 µM (active)
